Results as given in patent US20250320213A1, “Nitrogen-Containing Heterocyclic Compounds” (Pfizer Inc., priority 2024, published 2025).
Read-outs that look alike come from different tables or passages of the source.

What was measured:
[1] = target: T1, STAT6 (Homo sapiens, UniProt P42226); test: STAT6 Reporter Luciferase Assay (IL-13 stimulated HaCaT keratinocyte NanoLuc reporter cells); format: cell-based; conditions: read-out: Reporter EC50
T1 construct: stably transfected HaCaT keratinocyte cell line, which expresses NanoLuc luciferase reporter gene under the transcriptional control of the STAT6 responsive promoter; endogenous in cells; host or cells: HaCaT keratinocyte reporter cell line (stably transfected with a NanoLuc reporter)
T1 sequence (P42226 1-847): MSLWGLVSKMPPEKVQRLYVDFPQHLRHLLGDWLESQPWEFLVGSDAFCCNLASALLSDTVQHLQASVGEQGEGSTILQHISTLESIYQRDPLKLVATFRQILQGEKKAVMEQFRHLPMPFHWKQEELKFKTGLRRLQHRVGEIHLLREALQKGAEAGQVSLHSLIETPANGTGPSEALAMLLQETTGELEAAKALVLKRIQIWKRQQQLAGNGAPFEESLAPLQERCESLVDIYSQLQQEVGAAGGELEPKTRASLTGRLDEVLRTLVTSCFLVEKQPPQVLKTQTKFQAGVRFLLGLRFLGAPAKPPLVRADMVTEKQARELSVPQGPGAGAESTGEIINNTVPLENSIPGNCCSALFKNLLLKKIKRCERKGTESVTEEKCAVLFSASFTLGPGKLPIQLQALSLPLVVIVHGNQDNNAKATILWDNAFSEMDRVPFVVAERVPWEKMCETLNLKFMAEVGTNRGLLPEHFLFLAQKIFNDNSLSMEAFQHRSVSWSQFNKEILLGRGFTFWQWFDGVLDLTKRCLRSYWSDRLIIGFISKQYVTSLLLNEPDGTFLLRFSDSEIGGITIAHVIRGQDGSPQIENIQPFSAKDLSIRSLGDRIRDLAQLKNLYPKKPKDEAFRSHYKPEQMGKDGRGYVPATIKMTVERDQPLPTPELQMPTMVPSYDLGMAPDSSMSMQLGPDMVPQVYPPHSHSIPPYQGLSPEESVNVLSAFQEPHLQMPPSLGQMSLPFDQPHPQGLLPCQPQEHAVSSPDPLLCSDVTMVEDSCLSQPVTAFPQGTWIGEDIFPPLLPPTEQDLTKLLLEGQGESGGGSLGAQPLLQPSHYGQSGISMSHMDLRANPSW
Outline: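 Stably transfected HaCaT cells carrying NanoLuc under the STAT6-responsive IL-13Ra2 promoter were pre-treated with compound (11-point, 4-fold series, duplicate) for 2 h at 37 °C, then stimulated with 0.12 nM IL-13 for 4 h. Nano-Glo luminescence was read after 15 min.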

[2] = tested on: CCL17 secretion in peripheral human whole blood; test: Human Whole Blood (HWB) CCL17 TR-FRET Assay (IL-13 stimulated CCL17 secretion); format: cell-based
Outline: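 Compounds are titrated (11 points, 3-fold, duplicate) into fresh heparinized human whole blood and held 2 h at 37 °C before IL-13 challenge (10 ng/mL final). After 48 h at 37 °C, serum CCL17 is measured by TR-FRET sandwich assay and IC50 values are calculated.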

[3] = IL-13 stimulated HaCaT STAT6 NanoLuc reporter cells
[4] = Homo sapiens, 48 h, human whole blood, 10 ng/mL IL13, 48 hours
[5] = STAT6 NanoLuc luciferase reporter, IL-13 stimulated HaCaT keratinocyte cells
[6] = Homo sapiens, 48 h, inhibition of CCL17 secretion in human whole blood, 10 ng/mL IL13, 48 hours
[7] = Homo sapiens, 48 h, human whole blood, IL-13 stimulated
[8] = human whole blood, IL-13 stimulated, 48 hours

Compound | EC50 [1, 3] | IC50 [2, 7] | further results
CC(C)n1nc(C(=O)NCc2ccc(NC(=O)N3CCN(C)CC3)cc2)c2c1[C@@H](C)CN(c1ccc(-c3ncnn3C3CC3)cn1)C2 [Example 649, (S)-5-(5-(1-cyclopropyl-1H-1,2,4-triazol-5-yl)pyridin-2-yl)-1-isopropyl-7-methyl-N-(4-(4-methylpiperazine-1-carboxamido)benzyl)-4,5,6,7-tetrahydro-1H-pyrazolo[4,3-c]pyridine-3-carboxamide] | 1 nM | – | IC50 [2, 4]: 24 nM
CC(C)n1nc(C(=O)NCc2ccc(NC(=O)N(C)C)cc2)c2c1CCN(c1ccc(N3CCOCC3=O)cn1)C2 [Example 103, N-(4-(3,3-dimethylureido)benzyl)-1-isopropyl-5-(5-(3-oxomorpholino)pyridin-2-yl)-4,5,6,7-tetrahydro-1H-pyrazolo[4,3-c]pyridine-3-carboxamide] | – | – | EC50 [1, 5]: 47 nM; IC50 [2, 6]: 535 nM
CC(n1nc(C(=O)NCc2ccc(NC(=O)N(C)C)cc2)c2c1[C@@H](C)CN(c1ccc(C(=O)N(C)C)cn1)C2)C(F)(F)F (mixture of isomers) [Example 262, (S)-5-(5-(dimethylcarbamoyl)pyridin-2-yl)-N-(4-(3,3-dimethylureido)benzyl)-7-methyl-1-((RS)-1,1,1-trifluoropropan-2-yl)-4,5,6,7-tetrahydro-1H-pyrazolo[4,3-c]pyridine-3-carboxamide] | 1 nM | 6 nM | –
CC1c2c(C(=O)NCc3ccc(NC(=O)N(C)C)cc3)nn(C(C)C)c2[C@@H](C)CN1c1ccc(C(=O)N(C)C)cn1 (mixture of isomers) [Example 524, (4RS,7S)-5-(5-(Dimethylcarbamoyl)pyridin-2-yl)-N-(4-(3,3-dimethylureido)benzyl)-1-isopropyl-4,7-dimethyl-4,5,6,7-tetrahydro-1H-pyrazolo[4,3-c]pyridine-3-carboxamide] | 0.1 nM | 6 nM | –
CC(CO)n1nc(C(=O)NCc2ccc(NC(=O)N(C)C)cc2)c2c1CCN(c1ccc(C(=O)N(C)C)cn1)C2 (single isomer, unassigned) [Example 359, rel-(R or S)-5-(5-(dimethylcarbamoyl)pyridin-2-yl)-N-(4-(3,3-dimethylureido)benzyl)-1-(1-hydroxypropan-2-yl)-4,5,6,7-tetrahydro-1H-pyrazolo[4,3-c]pyridine-3-carboxamide] | 358 nM | – | IC50 [2, 8]: 869 nM
CCn1nc(C(=O)NCc2ccc(NC(=O)N(C)C)cc2)c2c1[C@H]1CC[C@H]1N(c1ccc(C(=O)N(C)C)cn1)C2 (single isomer, unassigned) [Example 230] | 14 nM | – | IC50 [2, 8]: 277 nM
CC(C)n1nc(C(=O)NCc2ccc(NC(=O)N3CCNCC3)cc2)c2c1[C@@H](C)CN(c1ccc(C(=O)N(C)C)cc1)C2 [Example 525, (S)-5-(4-(dimethylcarbamoyl)phenyl)-1-isopropyl-7-methyl-N-(4-(piperazine-1-carboxamido)benzyl)-4,5,6,7-tetrahydro-1H-pyrazolo[4,3-c]pyridine-3-carboxamide] | 2 nM | 7 nM | –
CC(C)n1nc(C(=O)NCc2ccc(NC(=O)N3CCN(C)CC3)c(F)c2)c2c1[C@@H](C)CN(c1ccc(-n3ccccc3=O)cn1)C2 [Example 610, (S)-N-(3-fluoro-4-(4-methylpiperazine-1-carboxamido)benzyl)-1-isopropyl-7-methyl-5-(2-oxo-2H-[1,3′-bipyridin]-6′-yl)-4,5,6,7-tetrahydro-1H-pyrazolo[4,3-c]pyridine-3-carboxamide] | 2 nM | – | IC50 [2, 4]: 17 nM
CN(C)C(=O)Nc1ccc(CNC(=O)c2nn(C3CCC3)c3c2CN(c2ccc(C(=O)N(C)C)cn2)CC3)cc1 [Example 96, 1-cyclobutyl-5-(5-(dimethylcarbamoyl)pyridin-2-yl)-N-(4-(3,3-dimethylureido)benzyl)-4,5,6,7-tetrahydro-1H-pyrazolo[4,3-c]pyridine-3-carboxamide] | – | – | EC50 [1, 5]: 5 nM; IC50 [2, 6]: 66 nM
CNC(=O)Nc1ccc(CNC(=O)c2nn(C(C)C)c3c2CN(c2ccc(C(N)=O)cn2)CC3)cc1 [Example 453, 5-(5-carbamoylpyridin-2-yl)-1-isopropyl-N-(4-(3-methylureido)benzyl)-4,5,6,7-tetrahydro-1H-pyrazolo[4,3-c]pyridine-3-carboxamide] | 2150 nM | 12100 nM | –
CC(C)n1nc(C(=O)NCc2ccc(NC(=O)N(C)C)cc2)c2c1[C@@H](C)CN(c1ccc(C(=O)N3CCN(C)CC3)cc1)C2 [Example 706, (S)-N-(4-(3,3-dimethylureido)benzyl)-1-isopropyl-7-methyl-5-(4-(4-methylpiperazine-1-carbonyl)phenyl)-4,5,6,7-tetrahydro-1H-pyrazolo[4,3-c]pyridine-3-carboxamide] | 27 nM | – | IC50 ([2]; Homo sapiens, 48 h, human whole blood, IL-13 10 ng/mL): 191 nM
C[C@H]1CN(c2ncc(-c3nccn3C)cn2)Cc2c(C(=O)NCc3ccc(NC(=O)N(C)C)cc3)nn(C)c21 [Example 502, (S)-N-(4-(3,3-dimethylureido)benzyl)-1,7-dimethyl-5-(5-(1-methyl-1H-imidazol-2-yl)pyrimidin-2-yl)-4,5,6,7-tetrahydro-1H-pyrazolo[4,3-c]pyridine-3-carboxamide] | 813 nM | 7550 nM | –
CCn1nc(C(=O)NCc2ccc(NC(=O)N(C)C)cc2)c2c1[C@@H](C)CN(c1ccc(N3CCCC3=O)cn1)C2 [Example 129, (S)-N-(4-(3,3-dimethylureido)benzyl)-1-ethyl-7-methyl-5-(5-(2-oxopyrrolidin-1-yl)pyridin-2-yl)-4,5,6,7-tetrahydro-1H-pyrazolo[4,3-c]pyridine-3-carboxamide] | – | – | EC50 [1, 5]: 1 nM; IC50 [2, 6]: 9 nM
COc1cc(NC(=O)N2CCNCC2)c(F)cc1CNC(=O)c1nn(C(C)C)c2c1CN(c1ccc(C(=O)N(C)C)cc1)C[C@@H]2C [Example 588, (S)-5-(4-(dimethylcarbamoyl)phenyl)-N-(5-fluoro-2-methoxy-4-(piperazine-1-carboxamido)benzyl)-1-isopropyl-7-methyl-4,5,6,7-tetrahydro-1H-pyrazolo[4,3-c]pyridine-3-carboxamide] | 75 nM | – | IC50 [2, 4]: 875 nM
CC(C)n1nc(C(=O)NCc2ccc(NC(=O)N(C)C)cc2)c2c1CCN(c1ccc(C3CCNC3=O)cn1)C2 (racemic) [Example 469, rac-(R)—N-(4-(3,3-Dimethylureido)benzyl)-1-isopropyl-5-(5-(2-oxopyrrolidin-3-yl)pyridin-2-yl)-4,5,6,7-tetrahydro-1H-pyrazolo[4,3-c]pyridine-3-carboxamide] | 5110 nM | – | IC50 [2, 8]: > 4160 nM
CC(C)n1nc(C(=O)NCc2ccc(NC(=O)NCc3ccc(NC(=O)N(C)C)cc3)cc2)c2c1[C@@H](C)CN(c1ncc(C(=O)N(C)C)cn1)C2 [Example 492, (S)-5-(5-(dimethylcarbamoyl)pyrimidin-2-yl)-N-(4-(3-(4-(3,3-dimethylureido)benzyl)ureido)benzyl)-1-isopropyl-7-methyl-4,5,6,7-tetrahydro-1H-pyrazolo[4,3-c]pyridine-3-carboxamide] | 0.5 nM | 4 nM | –
CC(C)n1nc(C(=O)NCc2ccc(NC(=O)C3CCN(C)CC3)c(F)c2)c2c1[C@@H](C)CN(c1ccc(C(=O)N(C)C)cn1)C2 [Example 587, (S)-5-(5-(dimethylcarbamoyl)pyridin-2-yl)-N-(3-fluoro-4-(1-methylpiperidine-4-carboxamido)benzyl)-1-isopropyl-7-methyl-4,5,6,7-tetrahydro-1H-pyrazolo[4,3-c]pyridine-3-carboxamide] | 14 nM | – | IC50 [2, 4]: 122 nM
CC(C)n1nc(C(=O)NCc2ccc(NC(=O)N3CCN(C)CC3)c(F)c2)c2c1[C@@H](C)CN(c1ccc(C(=O)N3Cc4cccnc4C3)cn1)C2 [Example 612, (S)-5-(5-(6,7-dihydro-5H-pyrrolo[3,4-b]pyridine-6-carbonyl)pyridin-2-yl)-N-(3-fluoro-4-(4-methylpiperazine-1-carboxamido)benzyl)-1-isopropyl-7-methyl-4,5,6,7-tetrahydro-1H-pyrazolo[4,3-c]pyridine-3-carboxamide] | 0.5 nM | – | IC50 [2, 4]: 10 nM
